From US20200278355A1, “CONJUGATED PROTEINS AND USES THEREOF” (THE SCRIPPS RESEARCH INSTITUTE, priority 2017, published 2020)

Target: T1, NT5DC1 (Homo sapiens, UniProt Q5TFE4)
T1 construct: Isotopically labeled H460 cell lines were generated as described above; endogenous in cells; host or cells: H460 (SILAC-labelled)
Test: ABPP-SILAC BPK-29yne competition in H460 cells: NT5DC1
Type: cell-based
Details: 20 μM
Procedure: Isotopically labeled H460 cell lines were generated as described above. Light and heavy cells were treated with compounds (20 μM) or DMSO, respectively, for 3 h, followed by labeling with the BPK-29yne (5 μM) for 30 min. Cells were washed once ice-cold PBS and lysed in 1% Triton 100-X dissolved in PBS with protease inhibitors (Sigma) by sonication. Lysate was adjusted to 1.5 mg ml^−1 in 500 μL. Samples were conjugated by CuAAC to Biotin-PEG4-azide (5 μL of 10 mM stocks in DMSO, final concentration=100 μM). CuAAC “click” mix contained TCEP, TBTA ligand and CuSO4 as detailed for isoTOP-ABPP sample preparation. Samples were further processed as detailed in: isoTOP-ABPP streptavidin enrichment and isoTOP-ABPP trypsin TEV digestion with the following exception: after overnight incubation at 37° C. with trypsin, tryptic digests were separated from the beads with Micro Bio-Spin columns (Bio-Rad) by centrifugation (1,000×g, 1 min). Beads were rinsed once with water (200 μL) and combined with tryptic digests. […]
The MS2 spectra data were extracted and searched using RAW Convertor and ProLuCID algorithm as described in isoTOP-ABPP peptide and protein quantification. […] Ratios of heavy/light (DMSO/test compound) peaks were calculated using in-house CIMAGE software. […] The mean R values and standard deviation for multiple biological experiments were calculated from the average ratios from each replicate. […]

T1 sequence (Q5TFE4 whole entry): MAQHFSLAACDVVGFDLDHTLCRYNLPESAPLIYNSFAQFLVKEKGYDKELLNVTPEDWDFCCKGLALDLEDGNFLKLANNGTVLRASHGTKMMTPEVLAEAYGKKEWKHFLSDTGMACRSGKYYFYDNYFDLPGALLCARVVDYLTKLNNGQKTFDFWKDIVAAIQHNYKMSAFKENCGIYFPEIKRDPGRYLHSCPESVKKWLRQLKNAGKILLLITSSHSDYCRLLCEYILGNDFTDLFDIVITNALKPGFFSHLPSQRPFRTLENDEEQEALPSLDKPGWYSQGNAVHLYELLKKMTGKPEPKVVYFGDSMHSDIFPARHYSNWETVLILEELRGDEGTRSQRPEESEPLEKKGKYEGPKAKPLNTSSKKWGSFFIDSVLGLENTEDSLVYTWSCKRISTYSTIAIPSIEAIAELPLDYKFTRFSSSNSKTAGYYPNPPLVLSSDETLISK

SMILES: O=C(c1ccc(N2CCOCC2)cc1)N1CCCC(N(Cc2ccccc2)C(=O)CCl)CC1 (stereo not shown) [BPK-29, N-benzyl-2-chloro-N-(1-(4-morpholinobenzoyl)azepan-4-yl)acetamide]
- BPK-29-competed BPK-29yne analysis: Yes (Competed defined as showing R value ≥ 2.5 at 20 μM of test compound)
